In the case of `Fc1cccc(F)c1-c1cnnc(-c2ccc(-c3ccc(OC(F)(F)F)cc3)cc2)n1` [Example 1.6, 5-(2,6-Difluorophenyl)-3-(4′-trifluoromethoxybiphenyl-4-yl)-[1,2,4]triazine], the melting point is reported as 159 to 160 °C.

— US6723720B2, “Pesticidal triazine-derivatives” (Novartis Animal Health US, Inc., priority 1999, dated 2004)
